From ChEMBL document CHEMBL1649197, “New combinations of mutations in VanD-Type vancomycin-resistant Enterococcus faecium, Enterococcus faecalis, and Enterococcus avium strains” (2009)
≈ marks a conversion by molar mass, not a printed value.

How the values were obtained:
Type in all cases: functional
Enterococcus faecium [1] = assay: Antimicrobial activity against Enterococcus faecium BM4458 harboring plasmid PAT833 carrying P2 vanSD (G340S) aac (6)-aph (2) mutant gene after 24 hrs; conditions: BM4458, 24 h
Enterococcus faecium [2] = assay: Antimicrobial activity against vancomycin and teicoplanin resistant Enterococcus faecium NEF1 after 24 hrs; conditions: NEF1, 24 h
Enterococcus faecium [3] = assay: Antimicrobial activity against vancomycin and teicoplanin resistant Enterococcus faecium BM4653 after 24 hrs; conditions: BM4653, 24 h
Enterococcus faecium [4] = assay: Antimicrobial activity against vancomycin and teicoplanin resistant Enterococcus faecium BM4656 after 24 hrs; conditions: BM4656, 24 h
Enterococcus faecalis = assay: Antimicrobial activity against vancomycin and teicoplanin resistant Enterococcus faecalis BM4654 after 24 hrs; conditions: BM4654, 24 h
Enterococcus avium = assay: Antimicrobial activity against vancomycin and teicoplanin resistant Enterococcus avium BM4655 after 24 hrs; conditions: BM4655, 24 h
Enterococcus faecium [5] = assay: Antimicrobial activity against vancomycin and teicoplanin resistant Enterococcus faecium BM4339 after 24 hrs; conditions: BM4339, 24 h
Enterococcus faecium [6] = assay: Antimicrobial activity against Enterococcus faecium BM4458 after 24 hrs; conditions: BM4458, 24 h
Enterococcus faecium [7] = assay: Antimicrobial activity against Enterococcus faecium BM4458 harboring plasmid PAT830 carrying P2 vanSD (V67A) aac (6)-aph (2) mutant gene after 24 hrs; conditions: BM4458, 24 h
Enterococcus faecium [8] = assay: Antimicrobial activity against Enterococcus faecium BM4458 harboring plasmid PAT831 carrying P2 vanSD 6bp330 aac (6)-aph (2) mutant gene after 24 hrs; conditions: BM4458, 24 h
Enterococcus faecium [9] = assay: Antimicrobial activity against Enterococcus faecium BM4458 harboring plasmid PAT832 carrying P2 vanSD (K308Q I309V R335Q) aac (6)-aph (2) mutant gene after 24 hrs; conditions: BM4458, 24 h

| Compound | MIC (Enterococcus faecium [1]) [µg/mL] | MIC (Enterococcus faecium [2]) [µg/mL] | MIC (Enterococcus faecium [3]) [µg/mL] | MIC (Enterococcus faecium [4]) [µg/mL] | MIC (Enterococcus faecalis) [µg/mL] | MIC (Enterococcus avium) [µg/mL] | MIC (Enterococcus faecium [5]) [µg/mL] | MIC (Enterococcus faecium [6]) [µg/mL] | MIC (Enterococcus faecium [7]) [µg/mL] | MIC (Enterococcus faecium [8]) [µg/mL] | MIC (Enterococcus faecium [9]) [µg/mL] |
| --- | --- | --- | --- | --- | --- | --- | --- | --- | --- | --- | --- |
| CN[C@H](CC(C)C)C(=O)N[C@H]1C(=O)N[C@@H](CC(N)=O)C(=O)N[C@H]2C(=O)N[C@H]3C(=O)N[C@H](C(=O)N[C@H](C(=O)O)c4cc(O)cc(O)c4-c4cc3ccc4O)[C@H](O)c3ccc(c(Cl)c3)Oc3cc2cc(c3O[C@@H]2O[C@H](CO)[C@@H](O)[C@H](O)[C@H]2O[C@H]2C[C@](C)(N)[C@H](O)[C@H](C)O2)Oc2ccc(cc2Cl)[C@H]1O [VANCOMYCIN] | 4 (≈ 2.76 µM) | 512 (≈ 353 µM) | 32 (≈ 22.1 µM) | 32 (≈ 22.1 µM) | 16 (≈ 11 µM) | 32 (≈ 22.1 µM) | 64 (≈ 44.2 µM) | 4 (≈ 2.76 µM) | 4 (≈ 2.76 µM) | 4 (≈ 2.76 µM) | 4 (≈ 2.76 µM) |
| CC(=O)N[C@@H]1[C@H](Oc2c3cc4cc2Oc2ccc(cc2Cl)[C@@H](O[C@@H]2O[C@@H](CO)[C@@H](O)[C@H](O)[C@@H]2NC(C)=O)[C@@H]2NC(=O)[C@H](NC(=O)[C@@H]4NC(=O)[C@H]4NC(=O)[C@@H](Cc5ccc(c(Cl)c5)O3)NC(=O)[C@H](N)c3ccc(O)c(c3)Oc3cc(O)cc4c3)c3ccc(O)c(c3)-c3c(O[C@H]4O[C@H](CO)[C@@H](O)[C@@H](O)[C@@H]4O)cc(O)cc3[C@@H](C(=O)O)NC2=O)O[C@@H](CO)[C@@H](O)[C@@H]1O | 0.5 (≈ 0.283 µM) | 64 (≈ 36.2 µM) | 4 (≈ 2.26 µM) | 4 (≈ 2.26 µM) | 0.5 (≈ 0.283 µM) | 4 (≈ 2.26 µM) | 4 (≈ 2.26 µM) | 0.5 (≈ 0.283 µM) | 0.5 (≈ 0.283 µM) | 0.5 (≈ 0.283 µM) | 0.5 (≈ 0.283 µM) |
